Laboratory results from PMC4065102 (PLoS ONE, 2014).
Entries after “also recorded” stand apart in the source; their conditions may differ. Bridges are numbered along the chain shown (N, C = ends). Where no end group is shown, it is not given here.

Assays:
[1] = system: SNU-16 stomach tumor xenografts; assay: Anti-tumor treatment of mice and tumor size/weight measurement; type: in vivo; settings: 3 weeks after treatment; cisplatin 5 mg/kg i.p. once per week x2, cetuximab 1.5 mg/kg i.p. twice per week x4; p<0.05, p<0.05, p<0.001 (linear ApoPep-1 group); p<0.05, p<0.01, p<0.001 (cyclic group)
Method: At 3 weeks after treatment (endpoint of experiments), tumor volumes were measured and tumors were isolated for the weight measurement.
SNU-16 stomach tumor-bearing mice that were analyzed for imaging signals after the first and second round of treatment were maintained for the measurement of tumor size. […] PBS, phosphate-buffered saline; CPT, cisplatin; CET, cetuximab; CPT+CET, cisplatin plus cetuximab.

[2] = Stability of peptides in the serum; type: in vitro ADME, mice; settings: mouse serum, 100 µg peptide in 50 µl PBS + 50 µl filtered serum, 37°C, up to 24 h, C18 reverse phase FPLC, absorbance 215 nm, peak identity by MALDI-TOF MS
Method: Peptide stability in the serum was examined as previously described. Blood from mice was collected and allowed to clot, and then serum was obtained by centrifugation at 4°C twice followed by filtration (0.22 µm pore). Peptide (100 µg in 50 µl of PBS) was incubated with 50 µl of filtered serum at 37°C for the indicated time period. The incubated samples were diluted 100-fold and fractionated by C18 reverse phase FPLC with linear gradient of acetonitrile (Vydac protein and peptide C18, 0.1% trifluoroacetate in water for equilibration, and 0.1% trifluoroacetate in acetonitrile for elution). To confirm the identity of the peak from the profiles of C18 reverse phase FPLC, each peak was collected, vacuum dried, and analyzed by mass spectrometry (MS) using an MALDI-TOF mass spectrometer (Life Technologies, Carlsbad, CA).
Figure 5 Stability of linear and cyclic ApoPep-1 in the serum. Linear and cyclic ApoPep-1 peptides were incubated with mouse serum at 37°C for the indicated time periods. (A) (B) Linear and cyclic form of ApoPpep-1 samples and mouse serum were fractionated by C18 reverse-phase FPLC. Y axis represents the absorbance unit at 215 nm. Each peptide peak was indicated by an arrow and separable from serum peaks. (C) (D) MS spectrum of the linear and cyclic peptide peak collected from 24 h FPLC fraction and synthetic linear and cyclic ApoPep-1.

[3] = system: SNU-16 stomach tumor xenografts; assay: In vivo NIR fluorescence imaging of tumor apoptosis; parameters: species or system mice; settings: for fluorescence intensity at tumor site in cisplatin plus cetuximab group compared to cisplatin alone and cetuximab alone / fluorescence intensity at tumor site in treated groups compared to untreated control group: FPR675-labeled peptide 800 nmol/kg i.v., imaging at 90 min; for fluorescence intensity at tumor site in cisplatin plus cetuximab group compared to cisplatin alone and cetuximab alone: after first and second round, linear: p<0.05/p<0.05 vs cisplatin, p<0.01/not significant vs cetuximab, cyclic: p<0.01/p<0.01 vs cisplatin, p<0.001/p<0.01 vs cetuximab; for fluorescence intensity at tumor site in treated groups compared to untreated control group: groups treated with cisplatin, cetuximab, cisplatin plus cetuximab, after first or second round of treatment, n = 3; for background fluorescence signals in other organs, including the liver and lung: whole body NIR fluorescence images, 90 min after i.v. FPR675-labeled peptide
Method: Eight-week old female athymic (nu/nu) Balb/c mice were purchased from Orient laboratories (Seongnam, Korea) and were housed under specific-pathogen-free conditions with laboratory chow and water ad libitum. Stomach tumor xenografts were established by subcutaneously injecting 1 x 10^7 SNU-16 cells in 100 µl saline into the right flank. Tumors were allowed to reach 50–60 mm^3 of volume before randomization and initiation of treatment. […] Changes in tumor size were measured over three weeks. Diameters of tumor were measured with automatic caliper. Tumor volumes were calculated using the formula: volume = (length x width x height)/2, where length, width, and height means the longest dimension, shorter dimension parallel to the mouse body, and diameter of tumor perpendicular to the length and width, respectively. Tumor weights were measured after isolation of tumor mass.
In vivo NIR fluorescence imaging was performed after the first and second round of treatment. Each treatment group (n = 6) was divided into two subgroups (n = 3) for imaging with linear and cyclic form of ApoPep-1, respectively. Linear and cyclic form of FPR675–labeled ApoPep-1 (1.45 mg/kg and 1.54 mg/kg, respectively; equivalent to 800 nmol/kg for each peptide) was injected through the tail vein into mice. At 90 min after administration, mice were anesthetized and subjected to imaging. NIR fluorescence (typically, between 650 and 1100 nm) is favored for in vivo optical imaging because of its low tissue absorption and deep tissue penetration properties. The excitation/emission wavelength of the FPR675 dye used in this study was 675/698 nm. Images were taken using the eXplore Optix optical imaging system (ART Inc., Montreal, Canada). […] The acquisition time for a whole-body scanning was 15 min per mouse. Fluorescence intensity at region of interest (ROI) was measured using a analysis software provided by the manufacturer (ART Inc.).
Figure 2 Monitoring of tumor response by in vivo imaging of apoptosis. […] After the first and second round of treatment, linear or cyclic form of FPR675 NIR fluorescence dye-labeled ApoPep-1 was intravenously injected into mice. In vivo NIR fluorescence images were taken at 90 min after administration. (A) (B) Quantification of NIR fluorescence signal intensity of the region of interest (ROI) in groups injected with linear and cyclic ApoPep-1. Bars represent the signal intensity at ROI obtained from three individual mice (mean ± S.D.). Asterisks represent statistical significance compared to PBS. Asterisks on brackets represent significance in difference between the two groups. * p<0.05, ** p<0.01, and *** p<0.001 by one-way ANOVA (n = 3 per group). (C) (D) Representative NIR fluorescence images by the uptake of linear and cyclic ApoPep-1 to tumor were shown. Scale bars represent normalized fluorescence intensity. Circles represent the ROI.

[4] = system: SNU16 human stomach cancer cell line; assay: In vitro binding of peptides to apoptotic cells (flow cytometry); type: cell-based; settings: 10 µM FITC-conjugated peptide 4°C 1 h, or Alexa488-annexin V 15 min RT
Method: SNU16 human stomach cancer cell line was purchased from KCLB (Seoul, Korea). […] After treatment, cells were incubated with 10 µM of fluorescein isothiocyanate (FITC)-conjugated linear or cyclic form of ApoPep-1 at 4°C for 1 h. As control, cells were stained with Alexa488-conjugated annexin V (Life technologies, Carlsbad, CA) for 15 min at RT. Percentages of fluorescent (peptide-bound or annexin V-bound) cells were measured by flow cytometry.
Figure 1 In vitro detection of apoptosis. […] Cells were harvested and incubated with FITC-labeled ApoPep-1 at 4°C for 1 h or with annexin V at room temperature for 15 min. Data represent percentages of apoptotic cells as measured by flow cytometry. (A-C) Percentages of apoptotic cells detected by linear form of ApoPep-1, cyclic form of ApoPep-1, and annexin V, respectively. PBS, phosphate-buffered saline; CPT, cisplatin; CET, cetuximab; CPT+CET, cisplatin plus cetuximab.

Row | Molecule | fluorescence intensity at tumor site in cisplatin plus cetuximab group compared to cisplatin alone and cetuximab alone [3] | fluorescence intensity at tumor site in treated groups compared to untreated control group [3] | background fluorescence signals in other organs, including the liver and lung [3] | other results
1 | N.N.[Cl][Pt][Cl] [cisplatin] | – | – | – | tumor volumes compared to untreated control [1]: reduced tumor volumes
2 | CQRPPRC (disulfide 1-7 (inferred)) [cyclic ApoPep-1, cyclic (CQRPPRC, disulfide bonding at amino and carboxy termini) form of ApoPep-1; used FITC-conjugated or FPR675-labeled] | remarkably higher | significantly higher | Little background fluorescence signals | amount of peptide remaining in the serum, as calculated by peak area ([2]; listed as cyclic form of ApoPep-1): not significantly changed up to 24 h; also recorded: stable in the presence of serum until 24 h
3 | CQRPPR [linear ApoPep-1, Linear (CQRPPR) form of ApoPep-1, histone H1-targeting peptide; used FITC-conjugated or FPR675-labeled] | higher | significantly higher | Little background fluorescence signals | amount of peptide remaining in the serum, as calculated by peak area ([2]; listed as linear form of ApoPep-1): not significantly changed up to 24 h; also recorded: stable in the presence of serum until 24 h
4 | annexin V: Alexa488-conjugated annexin V, apoptosis probe that binds to phosphatidylserine (protein, UniProt P08758 2-320, looked up, Alexa488 conjugate) Annexin A5: AQVLRGTVTDFPGFDERADAETLRKAMKGLGTDEESILTLLTSRSNAQRQEISAAFKTLFGRDLLDDLKSELTGKFEKLIVALMKPSRLYDAYELKHALKGAGTNEKVLTEIIASRTPEELRAIKQVYEEEYGSSLEDDVVGDTSGYYQRMLVVLLQANRDPDAGIDEAQVEQDAQALFQAGELKWGTDEEKFITIFGTRSVSHLRKVFDKYMTISGFQIEETIDRETSGNLEQLLLAVVKSIRSIPAYLAETLYYAMKGAGTDDHTLIRVMVSRSEIDLFNIRKEFRKNFATSLYSMIKGDTSGDYKKALLLLCGEDD | – | – | – | percentages of apoptotic cells detected by the probe after treatment with cetuximab ([4]; cetuximab 200 µg/ml 24 h): ~40%; percentages of apoptotic cells detected by the probe after treatment with cisplatin ([4]; cisplatin 300 ng/ml 24 h): approximately 43%; percentages of apoptotic cells detected by the probe after treatment with cisplatin plus cetuximab ([4]; cisplatin 300 ng/ml plus cetuximab 200 µg/ml 24 h): ~45%
